Measurements from patent US10363257B2 (ZENITH EPIGENETICS LTD., priority 2013, dated 2019).

Columns and labels:
c-myc = assay: Inhibition of c-myc expression (mRNA, real-time PCR) in MV4-11 cells; assay type: cell-based; details: Human AML MV4-11 cells, 3 h, cMYC mRNA
Experimental: MV4-11 cells (CRL-9591) were plated at a density of 2.5×10^4 cells per well in 96 well U-bottom plates and treated with increasing concentrations of test compound or DMSO (0.1%) in IMDM media containing 10% FBS and penicillin/streptomycin, and incubated for 3 h at 37° C. Triplicate wells were used for each concentration. Cells were pelleted by centrifugation and harvested using the mRNA Catcher PLUS kit according to manufacturer's instructions. The eluted mRNA isolated was then used in a one-step quantitative real-time PCR reaction, using components of the RNA UltraSense™ One-Step Kit (Life Technologies) together with Applied Biosystems TaqMan® primer-probes for cMYC and Cyclophilin. Real-time PCR plates were run on a VIaTM7 real time PCR machine (Applied Biosystems), data was analyzed, normalizing the Ct values for cMYC to an internal control, prior to determining the fold expression of each sample, relative to the control.

human AML MV-4-11 cells = assay: Inhibition of cell proliferation in MV4-11 cells (CellTiter Aqueous One); assay type: cell-based; details: for Cell Proliferation activity: 72 h; for IC50: MV4-11, 72 h
Experimental: MV4-11 cells: 96-well plates were seeded with 5×10^4 cells per well of exponentially growing human AML MV-4-11 (CRL-9591) cells and immediately treated with two-fold dilutions of test compounds, ranging from 30 μM to 0.2 μM. Triplicate wells were used for each concentration, as well as a media only and three DMSO control wells. The cells and compounds were incubated at 37° C., 5% CO2 for 72 h before adding 20 μL of the CellTiter Aqueous One Solution (Promega) to each well and incubating at 37° C., 5% CO2 for an additional 3-4 h. The absorbance was taken at 490 nm in a spectrophotometer and the percentage of proliferation relative to DMSO-treated cells was calculated after correction from the blank well. IC50 were calculated using the GraphPad Prism software.

[1] = molecular target: T1, Brd4 bromodomain 1 (BRD4(1)) (Homo sapiens, UniProt O60885); assay: Inhibition of tetra-acetylated histone H4 binding to Brd4 bromodomain 1 (TR-FRET); details: tetra-acetylated histone H4 peptide, first bromodomain of Brd4
T1 construct: made in house; host or cells: E. coli BL21(DE3)
Experimental: Proteins were cloned and overexpressed with a N-terminal 6× His tag, then purified by nickel affinity followed by size exclusion chromatography. Briefly, E.coli BL21(DE3) cells were transformed with a recombinant expression vector encoding N-terminally Nickel affinity tagged bromodomains from Brd2, Brd3, Brd4. Cell cultures were incubated at 37° C. with shaking to the appropriate density and induced overnight with IPTG. The supernatant of lysed cells was loaded onto Ni-IDA column for purification. Eluted protein was pooled, concentrated and further purified by size exclusion chromatography. Fractions representing monomeric protein were pooled, concentrated, aliquoted, and frozen at −80° C. for use in subsequent experiments.
Binding of tetra-acetylated histone H4 and BET bromodomains was confirmed by a Time Resolved Fluorescence Resonance Energy Transfer (TR-FRET) method. N-terminally His-tagged bromodomains (200 nM) and biotinylated tetra-acetylated histone H4 peptide (25-50 nM, Millipore) were incubated in the presence of Europium Cryptate-labeled streptavidin (Cisbio Cat. #610SAKLB) and XL665-labeled monoclonal anti-His antibody (Cisbio Cat. #61HISXLB) in a white 96 well microtiter plate (Greiner). For inhibition assays, serially diluted test compound was added to these reactions in a 0.2% final concentration of DMSO. Final buffer concentrations were 30 mM HEPES pH 7.4, 30 mM NaCl, 0.3 mM CHAPS, 20 mM phosphate pH 7.0, 320 mM KF, 0.08% BSA). After a 2-h incubation at room temperature, the fluorescence by FRET was measured at 665 and 620 nm by a SynergyH4 plate reader (Biotek). The binding inhibitory activity was shown by a decrease in 665 nm fluorescence relative to 620 nm. IC50 values were determined from a dose response curve.

Structure (SMILES) | IC50 (c-myc) [µM] | Cell Proliferation activity (human AML MV-4-11 cells) | IC50 [1] [µM] | IC50 (human AML MV-4-11 cells) [µM]
Cc1noc(C)c1-c1cc(Br)c2nc(C)n(CCc3ccccc3)c2c1 [compound 186, 4-(4-bromo-2-methyl-1-phenethyl-1H-benzo[d]imidazol-6-yl)-3,5-dimethylisoxazole] | 3 to 30 | Not active | ≤ 0.3 | –
COCCNc1nc2ncc(-c3c(C)noc3C)cc2n1Cc1ccccc1 [compound 167, 1-benzyl-6-(3,5-dimethylisoxazol-4-yl)-N-(2-methoxyethyl)-1H-imidazo[4,5-b]pyridin-2-amine] | ≤ 0.3 | – | ≤ 0.3 | ≤ 0.3
COc1ccc(CNc2nc3ncc(-c4c(C)noc4C)cc3n2Cc2ccccc2)cc1 [compound 205, 1-benzyl-6-(3,5-dimethylisoxazol-4-yl)-N-(4-methoxybenzyl)-1H-imidazo[4,5-b]pyridin-2-amine] | 0.3 to 3 | – | ≤ 0.3 | 0.3 to 3
COc1ccc(Cn2c(=O)[nH]c3c(N)cc(-c4c(C)noc4C)cc32)cc1 [compound 104, 4-amino-6-(3,5-dimethylisoxazol-4-yl)-1-(4-methoxybenzyl)-1H-benzo[d]imidazol-2(3H)-one] | 0.3 to 3 | – | ≤ 0.3 | 0.3 to 3
Cc1noc(C)c1-c1cc(O)c2nc(C)n(Cc3ccccc3)c2c1 [compound 173, 1-benzyl-6-(3,5-dimethylisoxazol-4-yl)-2-methyl-1H-benzo[d]imidazol-4-ol] | ≤ 0.3 | – | ≤ 0.3 | 0.3 to 3
CC(=O)Nc1cc(-c2c(C)noc2C)cc2c1nc(N1CCC1)n2Cc1ccccc1 [compound 130, N-(2-(azetidin-1-yl)-1-benzyl-6-(3,5-dimethylisoxazol-4-yl)-1H-benzo[d]imidazol-4-yl)acetamide] | 0.3 to 3 | – | ≤ 0.3 | 0.3 to 3
Cc1noc(C)c1-c1cnc2[nH]c(=O)n(Cc3ccccc3)c2c1C [compound 180, 1-benzyl-6-(3,5-dimethylisoxazol-4-yl)-7-methyl-1H-imidazo[4,5-b]pyridin-2(3H)-one] | 0.3 to 3 | – | ≤ 0.3 | 0.3 to 3
CCNc1nc2c([N+](=O)[O-])cc(-c3c(C)noc3C)cc2n1CC1CC1 [compound 159, 1-(cyclopropylmethyl)-6-(3,5-dimethylisoxazol-4-yl)-N-ethyl-4-nitro-1H-benzo[d]imidazol-2-amine] | ≤ 0.3 | – | ≤ 0.3 | 0.3 to 3
Cc1noc(C)c1-c1cnc2[nH]c(=O)n([C@@H](C)c3ccccc3)c2c1 [compound 219, (S)-6-(3,5-dimethylisoxazol-4-yl)-1-(1-phenylethyl)-1H-imidazo[4,5-b]pyridin-2(3H)-one] | 0.3 to 3 | – | 0.3 to 3 | 0.3 to 3
Cc1noc(C)c1-c1cnc2nc(C)n(Cc3ccccc3)c2c1C [compound 181, 4-(1-benzyl-2,7-dimethyl-1H-imidazo[4,5-b]pyridin-6-yl)-3,5-dimethylisoxazole] | ≤ 0.3 | – | ≤ 0.3 | 0.3 to 3
Cc1noc(C)c1-c1cnc2nc(NCc3cccnc3)n(Cc3ccccc3)c2c1 [compound 185, 1-benzyl-6-(3,5-dimethylisoxazol-4-yl)-N-(pyridin-3-ylmethyl)-1H-imidazo[4,5-b]pyridin-2-amine] | ≤ 0.3 | – | ≤ 0.3 | ≤ 0.3
Cc1noc(C)c1-c1cc(N2CCC2=O)c2nc(C)n(Cc3ccccc3)c2c1 [compound 183, 1-(1-benzyl-6-(3,5-dimethylisoxazol-4-yl)-2-methyl-1H-benzo[d]imidazol-4-yl)azetidin-2-one] | 0.3 to 3 | – | ≤ 0.3 | 3 to 30
Cc1noc(C)c1-c1cc(N2CCOCC2)c2nc(C)n(Cc3ccccc3)c2c1 [compound 182, 4-(1-benzyl-6-(3,5-dimethylisoxazol-4-yl)-2-methyl-1H-benzo[d]imidazol-4-yl)morpholine] | 0.3 to 3 | – | ≤ 0.3 | 0.3 to 3
Cc1noc(C)c1-c1cc([N+](=O)[O-])c2[nH]c(=O)n(C(C)c3ccccc3)c2c1 (centres unmarked) [compound 110, 6-(3,5-dimethylisoxazol-4-yl)-4-nitro-1-(1-phenylethyl)-1H-benzo[d]imidazol-2(3H)-one] | 0.3 to 3 | – | ≤ 0.3 | 0.3 to 3
Cc1noc(C)c1-c1cc(N)c2[nH]c(=O)n([C@H](C)c3ccccc3)c2c1 [compound 179, (R)-4-amino-6-(3,5-dimethylisoxazol-4-yl)-1-(1-phenylethyl)-1H-benzo[d]imidazol-2(3H)-one] | ≤ 0.3 | – | ≤ 0.3 | ≤ 0.3
Cc1noc(C)c1-c1cc(N)c2[nH]c(=O)n(Cc3ccc(Cl)cc3)c2c1 [compound 90, 4-amino-1-(4-chlorobenzyl)-6-(3,5-dimethylisoxazol-4-yl)-1H-benzo[d]imidazol-2(3H)-one] | ≤ 0.3 | – | ≤ 0.3 | 0.3 to 3
Cc1nc2ncc(-c3cnnn3C)cc2n1Cc1ccccc1 [compound 206, 1-benzyl-2-methyl-6-(1-methyl-1H-1,2,3-triazol-5-yl)-1H-imidazo[4,5-b]pyridine] | – | – | ≤ 0.3 | 3 to 30
Cc1noc(C)c1-c1cnc2nc(N3CCOCC3)n(CC3CCC3)c2c1 [compound 210, 4-(1-(cyclobutylmethyl)-6-(3,5-dimethylisoxazol-4-yl)-1H-imidazo[4,5-b]pyridin-2-yl)morpholine] | 0.3 to 3 | – | ≤ 0.3 | 0.3 to 3
CCOc1nc2c(NC(C)=O)cc(-c3c(C)noc3C)cc2n1Cc1ccccc1 [compound 120, N-(1-benzyl-6-(3,5-dimethylisoxazol-4-yl)-2-ethoxy-1H-benzo[d]imidazol-4-yl)acetamide] | 0.3 to 3 | – | ≤ 0.3 | 0.3 to 3
Cc1noc(C)c1-c1cnc2nc(NCc3ccncc3)n(Cc3ccccc3)c2c1 [compound 169, 1-benzyl-6-(3,5-dimethylisoxazol-4-yl)-N-(pyridin-4-ylmethyl)-1H-imidazo[4,5-b]pyridin-2-amine] | ≤ 0.3 | – | ≤ 0.3 | ≤ 0.3
CCNc1nc2ncc(-c3c(C)noc3C)cc2n1Cc1ccccc1 [compound 107, 1-benzyl-6-(3,5-dimethylisoxazol-4-yl)-N-ethyl-1H-imidazo[4,5-b]pyridin-2-amine] | – | – | ≤ 0.3 | 0.3 to 3
CCOc1nc2ncc(-c3c(C)noc3C)cc2n1Cc1ccccc1 [Example Compound 59, 4-(1-benzyl-2-ethoxy-1H-imidazo[4,5-b]pyridin-6-yl)-3,5-dimethylisoxazole] | – | Not active | 0.3 to 3 | –
Cc1noc(C)c1-c1cc(Br)c2nc(C)n(C(=O)c3ccccc3)c2c1 [compound 200, (4-bromo-6-(3,5-dimethylisoxazol-4-yl)-2-methyl-1H-benzo[d]imidazol-1-yl)(phenyl)methanone] | – | Not active | 0.3 to 3 | –
Cc1noc(C)c1-c1cc(N)c2[nH]c(=O)n(CC3CC3)c2c1 [compound 161, 4-amino-1-(cyclopropylmethyl)-6-(3,5-dimethylisoxazol-4-yl)-1H-benzo[d]imidazol-2(3H)-one] | – | – | ≤ 0.3 | 0.3 to 3
Cc1noc(C)c1-c1cnc2ncn(Cc3ccccn3)c2c1 [Example Compound 47, 3,5-dimethyl-4-(1-(pyridin-2-ylmethyl)-1H-imidazo[4,5-b]pyridin-6-yl)isoxazole] | – | Not active | 3 to 30 | –
Cc1noc(C)c1-c1ccc2[nH]cc(Nc3cccc(C#N)c3)c2n1 [Example Compound 57, 3-((5-(3,5-dimethylisoxazol-4-yl)-1H-pyrrolo[3,2-b]pyridin-3-yl)amino)benzonitrile] | – | – | 3 to 30 | 3 to 30
